Several values for one entry are separate records, joined by “and”; a condition that tells them apart may be missing. Equal entries are not always repeated.
Key:
Format in all cases: cell-based
[1] = system: Serratia marcescens; assay: Pre-test MIC, NCCLS microbroth dilution; conditions: nitrofurantoin alone, S. marcescens, one value per isolate (Isolate ID 11-20)
Experimental: (§1) Methods for Dilution Antimicrobial Susceptibility Tests for Bacteria That Grow Aerobically; Approved Standard (Fifth Edition) (2000). These standards are as follows: [table] Nitrofurantoin was added to cation-adjusted Mueller-Hinton Broth (hereinafter “CAMHB”) and dissolved. […] The uva ursi extract was serially diluted in water. For each test concentration, the final dilution was performed in CAMHB providing dilutions of 1:20 to 1:2048.

[2] = system: Staphylococcus saprophyticus; assay: Pre-test MIC, NCCLS microbroth dilution; conditions: nitrofurantoin alone, S. saprophyticus, one value per isolate (Isolate ID 61-70)
Experimental: as §1

[3] = system: Enterococcus faecalis; assay: Pre-test MIC, NCCLS microbroth dilution; conditions: nitrofurantoin alone, E. faecalis, one value per isolate (Isolate ID 21-30)
Experimental: as §1

[4] = system: Pseudomonas aeruginosa; assay: Pre-test MIC, NCCLS microbroth dilution
Experimental: as §1

[5] = system: Proteus mirabilis; assay: Checkerboard synergy test, nitrofurantoin and uva ursi; conditions: nitrofurantoin alone, P. mirabilis isolates 41-50
Source text: (§2) The checkerboard (or chessboard) method is used to assess the antimicrobial combination in vitro against the following selection of Gram-positive and Gram-negative pathogens including: Escherichia coli, Klebsiella pneumoniae, Proteus mirabilis, Serratia marcescens, Staphylococcus saprophyticus, Pseudomonas aeruginosa, and Enterococcus faecalis. […] Furthermore, the combination of nitrofurantoin and uva ursi is synergistic against four of the seven species tested, in particular E. coli, S. marcescens, P. mirabilis, and P. aeruginosa. […] [table] […] Following testing, the FIC index was calculated for each isolate panel to determine whether synergy, additivity, or antagonism occurred. […] For additivity, the FIC index is 1. For antagonism, the FIC index is 2.

[6] = system: Staphylococcus saprophyticus; assay: as above; conditions: nitrofurantoin alone, S. saprophyticus isolates 61-70
Source text: as §2

[7] = system: Enterococcus faecalis; assay: as above; conditions: E. faecalis isolates 21-30
Source text: as §2

[8] = system: Pseudomonas aeruginosa; assay: as above; conditions: P. aeruginosa isolates 1-10
Source text: as §2

[9] = checkerboard, nitrofurantoin alone

Q: How did the “MIC Nitrofurantoin” value [1] turn out when `O=C1CN(/N=C/c2ccc([N+](=O)[O-])o2)C(=O)N1` [Nitrofurantoin, N-(5-nitro-2-furfurylidene)-1-aminohydantoin] was run?
A: 64 to 512 µg/mL

Q: And the “MIC Nitrofurantoin” value [2]?
A: 8 to 32 µg/mL

Q: And the “MIC Nitrofurantoin” value [3]?
A: 8 to 64 µg/mL

Q: What about the MIC ([4]; Pseudomonas aeruginosa, read-out: Nitrofurantoin MIC) of the same compound?
A: > 512 µg/mL

Q: And the “Nitrofurantoin MIC” value ([4]; pre-test, nitrofurantoin alone, P. aeruginosa, one value per isolate (Isolate ID 1-10))?
A: >512 µg/mL

Q: What about the “MIC Nitrofurantoin” value [5] of the same compound?
A: 128 µg/mL

Q: What about the “MIC Nitrofurantoin” value [6] of the same compound?
A: 8 µg/mL

Q: What about the MIC ([7]; Enterococcus faecalis, read-out: MIC Nitrofurantoin, checkerboard, nitrofurantoin alone) of the same compound?
A: 16 µg/mL

Q: What about the “MIC Nitrofurantoin” value [7, 9] of the same compound?
A: 8 µg/mL

Q: And the MIC ([8]; Pseudomonas aeruginosa, read-out: MIC Nitrofurantoin, checkerboard, nitrofurantoin alone)?
A: > 512 µg/mL

Q: And the “MIC Nitrofurantoin” value [8, 9]?
A: >512 µg/mL and 512 µg/mL
